Assay [1] in a line: Induction of apoptosis in rat 5123TC cells assessed as apoptotic index at 25 uM after 48 hrs. Format: functional.
Assay [2] in a line: Induction of apoptosis in rat 5123TC cells after 48 hrs. Format: functional. The settings on record: read-out: ED50 (the source's name).
The test system of assay [3] is CCRF-CEM. Description: Cytotoxicity against human CEM cells after 72 hrs by Calcein AM assay. Format: functional, cell-based.
Another assay has as its system K562. Kind of assay: Cytotoxicity against human K562 cells after 72 hrs by Calcein AM assay. It counts as functional, cell-based. The settings on record: K562, 72 h.
The subject of assay [4] is MCF7. Kind of assay: Cytotoxicity against human MCF7 cells after 72 hrs by Calcein AM assay. It counts as functional, cell-based. The settings on record: MCF7, 72 h.
The next assay has as its system HeLa. Kind of assay: Cytotoxicity against human HeLa cells after 72 hrs by Calcein AM assay. It counts as functional, cell-based.
In another assay the test system is G-361. Description: Cytotoxicity against human G361 cells after 72 hrs by Calcein AM assay. The settings on record: G-361, 72 h. It counts as functional, cell-based.
For the next assay, the system named is BJ. Kind of assay: Cytotoxicity against human BJ cells after 72 hrs by Calcein AM assay.
Assay [5] deals with CCRF-CEM. Kind of assay: Induction of apoptosis in human CEM cells assessed increase in expression of p53 after 24 hrs by Western Blot analysis. Format: functional, cell-based.
Assay [6] has as its system CCRF-CEM. Description: Induction of apoptosis in human CEM cells assessed as decrease level of procaspase-3 at 10 uM after 24 hrs by Western Blot analysis. Format: functional, cell-based.
Assay [7] concerns CCRF-CEM. Description: Induction of apoptosis in human CEM cells assessed as increase cleavage of PARP at 20 uM after 24 hrs by Western Blot analysis. It counts as functional, cell-based.
Assay [8] concerns CCRF-CEM. Kind of assay: Cell cycle arrest in human CEM cells assessed as accumulation at sub-G1 phase at 1 to 20 uM after 24 hrs by FACS analysis relative to control. Format: functional.
Assay [9] concerns CCRF-CEM. Description: Cell cycle arrest in human CEM cells assessed as increase accumulation at G2/M phase after 24 hrs by FACS analysis. It counts as functional, cell-based.
For assay [10], the system named is CCRF-CEM. Kind of assay: Cell cycle arrest in human CEM cells assessed as decrease accumulation at G0/G1 phase at 1 to 20 uM after 24 hrs by FACS analysis. It counts as functional, cell-based.
For assay [11], the system named is CCRF-CEM. Kind of assay: Cell cycle arrest in human CEM cells assessed as decrease accumulation at S phase at 1 to 20 uM after 24 hrs by FACS analysis. Format: functional, cell-based.
Assay [12] has as its system CCRF-CEM. Description: Induction of apoptosis in human CEM cells assessed as increase in activity of caspases-3/7 at 20 uM after 24 hrs by fluorescence analysis relative to control. Format: functional.
In assay [13] the test system is CCRF-CEM. Kind of assay: Induction of apoptosis in human CEM cells assessed as increase cleavage of PARP at 10 uM after 24 hrs by Western Blot analysis. It counts as functional, cell-based.
Assay [14] has as its system CCRF-CEM. Kind of assay: Induction of apoptosis in human CEM cells assessed as decrease level of procaspase-3 at 20 uM after 24 hrs by Western Blot analysis. It counts as functional, cell-based.
In assay [15] the test system is CCRF-CEM. Description: Induction of apoptosis in human CEM cells assessed increase in expression of p53 at 10 uM after 24 hrs by Western Blot analysis. Format: functional, cell-based.
Assay [16] relates to CCRF-CEM. Description: Induction of apoptosis in human CEM cells assessed increase in expression of p53 at 20 uM after 24 hrs by Western Blot analysis. Format: functional, cell-based.
Assay [17] relates to CCRF-CEM. Description: Induction of apoptosis in human CEM cells assessed activity of Bcl-2 at 1 to 20 uM after 24 hrs by Western Blot analysis. It counts as functional, cell-based.
For assay [18], the system named is CCRF-CEM. Kind of assay: Induction of apoptosis in human CEM cells assessed decrease level of Mcl-1 at 20 uM after 24 hrs by Western Blot analysis. Format: functional, cell-based.
Assay [19] has as its system CCRF-CEM. Kind of assay: Induction of apoptosis in human CEM cells assessed as […] after 24 hrs by Western Blot analysis. It counts as functional, cell-based.
Assay [20] concerns CCRF-CEM. Description: Induction of apoptosis in human CEM cells assessed as decrease level of procaspase-3 after 24 hrs by Western Blot analysis. Format: functional, cell-based.
Assay [21] relates to MCF7. Kind of assay: Cytotoxicity against human MCF7 cells. It counts as functional, cell-based.
Assay [22] has as its system CCRF-CEM. Description: Induction of apoptosis in human CEM cells assessed decrease level of Mcl-1 at 1 to 20 uM after 24 hrs by Western Blot analysis. It counts as functional, cell-based.
For assay [23], the system named is CCRF-CEM. Description: Induction of apoptosis in human CEM cells assessed as increase cleavage of PARP at 1 to 20 uM after 24 hrs by Western Blot analysis. It counts as functional, cell-based.
In assay [24] the test system is CCRF-CEM. Kind of assay: Induction of apoptosis in human CEM cells assessed as decrease level of procaspase-3 at 1 to 20 uM after 24 hrs by Western Blot analysis. Format: functional, cell-based.
Assay [25] concerns CCRF-CEM. Description: Cell cycle arrest in human CEM cells assessed as accumulation at sub-G1 phase at 20 uM after 24 hrs by FACS analysis relative to control. Format: functional, cell-based.
Another assay concerns NCI-H460. Kind of assay: Cytotoxicity against human NCI-H460 cells by MTT assay. Format: functional, cell-based.

Consider 15 molecules from ChEMBL document CHEMBL2146463, “Apoptosis-inducing effects of distichamine and narciprimine, rare alkaloids of the plant family Amaryllidaceae” (Bioorg Med Chem Lett, 2012).

SMILES strings stand for the structures. Calls of active or inactive are those of the source. The calls are words filed in the database; no cut-off is given here.

As for `COc1c2c(cc3c1[C@@H](O)N1CC[C@]34[C@H]3O[C@H]3[C@H](OC)C[C@@H]14)OCO2`, the Activity in assay [1] is reported as 25%.
Turning to `CO[C@H]1C=C[C@@]23c4cc5c(cc4CN(C[C@@H]2O)[C@H]3C1)OCO5`, the EC50 in assay [2] is 12.5 µM. Also, the Activity in assay [1] came to 90%.
As to `CO[C@@H]1C=C[C@@]23c4cc5c(cc4CN(C[C@@H]2O)[C@H]3C1)OCO5` [(+)-HAEMANTHAMINE], the IC50 in the assay with CCRF-CEM [3] is 2.1 µM; in the assay on K562, 3.4 µM; in the assay with MCF7 [4], 8.1 µM; in the assay on HeLa it was 7 µM; with G-361, 3.7 µM; in the assay with BJ, 2.7 µM. Besides, in assay [2], the EC50 is 15 µM. In [1], the Activity is 90%.
In the case of `COc1c2c(cc3c1OCO3)[C@]13C=C[C@H](OC)C[C@H]1N(CC3)C2` [BUPHANIDRINE], the IC50 is > 50 µM in the assay with CCRF-CEM [3]; > 50 µM in the assay on K562; > 50 µM in the assay on MCF7 [4]; > 50 µM with HeLa; > 50 µM in the assay with G-361; 26.2 µM in the assay on BJ.
For `COC1=CC(=O)[C@@]23CCN(Cc4c2cc2c(c4OC)OCO2)[C@@H]3C1` [DISTICHAMINE], the Activity result is “Dose-dependent effect” in the assay on CCRF-CEM [5]; 23.7% in the assay with CCRF-CEM [8]; “Dose-dependent effect” in the assay on CCRF-CEM [9]; “Dose-dependent effect” in the assay with CCRF-CEM [19]; “Dose-dependent effect” with CCRF-CEM [20]. The IC50 is 4.5 µM in the assay with CCRF-CEM [3]; 4.1 µM with K562; 2.3 µM in the assay with MCF7 [4]; 2.2 µM in the assay with HeLa; 14.7 µM in the assay with G-361; 10.5 µM in the assay with BJ. The outcome in the assay with CCRF-CEM [6], in the assay with CCRF-CEM [7], in the assay on CCRF-CEM [10], in the assay with CCRF-CEM [11], in the assay with CCRF-CEM [13] and in the assay with CCRF-CEM [14] was Active. The result with CCRF-CEM [15], in the assay on CCRF-CEM [16] and in the assay on CCRF-CEM [18] was Active. Also, the “fold change (FC)” value with CCRF-CEM [12] came to 12.5. Further, the outcome with CCRF-CEM [17] was inactive.
As to `COc1ccc2c3c1O[C@H]1C[C@@H](O)C=C[C@@]31CCN(C)C2` [GALANTAMINE], the IC50 in the assay with CCRF-CEM [3], with K562, in the assay with MCF7 [4], in the assay with HeLa, in the assay on G-361 and in the assay on BJ was > 50 µM throughout.
With `COc1cc2c(cc1OC)[C@H]1[C@H]3C(=CC[C@H]1OC2=O)CCN3C` [HOMOLYCORINE], the IC50 was 15 µM with CCRF-CEM [3]; 19.4 µM with K562; > 50 µM in the assay on MCF7 [4]; > 50 µM with HeLa; 32.9 µM in the assay with G-361; 20.8 µM with BJ.
In the case of `COc1ccc2c3c1O[C@H]1C[C@@H](O)CC[C@]31CCN(C)C2` [LYCORAMINE], the IC50 with CCRF-CEM [3], in the assay with K562, in the assay on MCF7 [4], in the assay with HeLa, in the assay on G-361 and in the assay with BJ was > 50 µM throughout.
`O[C@H]1[C@H]2c3cc4c(cc3CN3CCC(=C[C@@H]1O)[C@H]23)OCO4` [LYCORINE]: the Activity result with CCRF-CEM [3] was “Dose-dependent effect”. Moreover, the IC50 is 1.6 µM in the assay on CCRF-CEM [3]; 3.6 µM in the assay with K562; 13 µM in the assay on MCF7 [4]; 10.6 µM in the assay with HeLa; 5 µM with G-361; 1.9 µM in the assay on BJ.
In turn, `O=C1N[C@@H]2C(=C[C@H](O)[C@@H](O)[C@H]2O)c2cc3c(c(O)c21)OCO3` [NARCICLASINE] yielded an IC50 in the assay on MCF7 [21] of 0.01 µM.
In the case of `O=c1[nH]c2c(O)cccc2c2cc3c(c(O)c12)OCO3` [NARCIPRIMINE], the outcome with CCRF-CEM [22], in the assay on CCRF-CEM [23], with CCRF-CEM [24] and in the assay with CCRF-CEM [17] was inactive. Also, the Activity result with CCRF-CEM [5] and in the assay with CCRF-CEM [9] was “Dose-dependent effect” in each case. The IC50 in the assay with CCRF-CEM [3] is 13.3 µM; in the assay on K562, > 50 µM; with MCF7 [4] it was > 50 µM; with HeLa it was > 50 µM; with G-361 it was > 50 µM; with BJ, 7.9 µM. In addition, the outcome with CCRF-CEM [10], in the assay on CCRF-CEM [11] and in the assay with CCRF-CEM [25] was Active. Further, the “fold change (FC)” value in the assay with CCRF-CEM [12] amounted to 1.8.
With `COc1ccc2c3c1O[C@H]1CC(=O)C=C[C@@]31CCN(C)C2` [NARWEDINE], the half-maximal inhibitory concentration (IC50) in the assay with CCRF-CEM [3] was 31.6 µM; in the assay with K562, > 50 µM; in the assay with MCF7 [4], > 50 µM; with HeLa, > 50 µM; with G-361, > 50 µM; in the assay with BJ it was > 50 µM.
`O=C1N[C@H]2[C@H](O)[C@H](O)[C@@H](O)[C@H](O)[C@@H]2c2cc3c(c(O)c21)OCO3` [PANCRATISTATIN] returned an IC50 with MCF7 [21] of 0.071 µM.
As to `O=C(O[C@H]1[C@H](O)[C@@H](O)[C@@H](O)[C@@H]2NC(=O)c3c(cc4c(c3O)OCO4)[C@H]21)c1ccccc1` [PHENPANSTATIN], in the assay on NCI-H460, 0.00023 µM corresponded to half-maximal inhibition (IC50).
For `CN[C@@H]1C[C@H]2O[C@@](C)([C@@H]1OC)n1c3ccccc3c3c4c(c5c6ccccc6n2c5c31)C(=O)NC4` [STAUROSPORINE], the IC50 with CCRF-CEM [3] was 0.023 µM.
